From the kinase profiling compilation of Christmann-Franck et al. (2016)

Assays:
Assay in all cases: KINOMEscan competition binding
Settings in all cases: compound 10.0 µM
[1] = target: CAMK2A (human) (UniProt Q9UQM7)
[2] = target: TSSK1B (human) (UniProt Q9BXA7)
[3] = target: TGFBR1 (human) (UniProt P36897)
[4] = target: TYRO3 (human) (UniProt Q06418)
[5] = target: TAOK3 (human) (UniProt Q9H2K8)
[6] = target: LIMK1 (human) (UniProt P53667)
[7] = target: PRKCE (human) (UniProt Q02156)
[8] = target: NTRK2 (human) (UniProt Q16620)
[9] = target: TEK (human) (UniProt Q02763)
[10] = target: CAMK1D (human) (UniProt Q8IU85)
[11] = target: PIK3CB (human) (UniProt P42338)
[12] = target: PIK3C2G (human) (UniProt O75747)
[13] = target: PRPF4B (human) (UniProt Q13523)
[14] = target: MAP4K3 (human) (UniProt Q8IVH8)
[15] = target: CSNK1A1L (human) (UniProt Q8N752)
[16] = target: MAP3K9 (human) (UniProt P80192)
[17] = target: ACVRL1 (human) (UniProt P37023)
[18] = target: CDK18 (human) (UniProt Q07002)
[19] = target: MELK (human) (UniProt Q14680)
[20] = target: EPHA7 (human) (UniProt Q15375)
[21] = target: SBK1 (human) (UniProt Q52WX2)
[22] = target: PIP5K1A (human) (UniProt Q99755)
[23] = target: NTRK1 (human) (UniProt P04629)
[24] = target: PKMYT1 (human) (UniProt Q99640)
[25] = target: VRK2 (human) (UniProt Q86Y07)
[26] = target: STK38 (human) (UniProt Q15208)
[27] = target: CDK13 (human) (UniProt Q14004)
[28] = target: TYK2 JH1 catalytic (human) (UniProt P29597)
[29] = target: PAK4 (human) (UniProt O96013)
[30] = target: STK35 (human) (UniProt Q8TDR2)
[31] = target: PKN1 (human) (UniProt Q16512)
[32] = target: CDK8 (human) (UniProt P49336)
[33] = target: CRK2 (P.falciparum) (UniProt P61075)
[34] = target: DMPK (human) (UniProt Q09013)
[35] = target: GRK4 (human) (UniProt P32298)
[36] = target: FGFR1 (human) (UniProt P11362)
[37] = target: GAK (human) (UniProt O14976)
[38] = target: RIPK1 (human) (UniProt Q13546)
[39] = target: PIM3 (human) (UniProt Q86V86)
[40] = target: RPS6KA6 KD1 (human) (UniProt Q9UK32)
RPS6KA6 KD1 (human), sequence (Q9UK32 whole entry, looked up): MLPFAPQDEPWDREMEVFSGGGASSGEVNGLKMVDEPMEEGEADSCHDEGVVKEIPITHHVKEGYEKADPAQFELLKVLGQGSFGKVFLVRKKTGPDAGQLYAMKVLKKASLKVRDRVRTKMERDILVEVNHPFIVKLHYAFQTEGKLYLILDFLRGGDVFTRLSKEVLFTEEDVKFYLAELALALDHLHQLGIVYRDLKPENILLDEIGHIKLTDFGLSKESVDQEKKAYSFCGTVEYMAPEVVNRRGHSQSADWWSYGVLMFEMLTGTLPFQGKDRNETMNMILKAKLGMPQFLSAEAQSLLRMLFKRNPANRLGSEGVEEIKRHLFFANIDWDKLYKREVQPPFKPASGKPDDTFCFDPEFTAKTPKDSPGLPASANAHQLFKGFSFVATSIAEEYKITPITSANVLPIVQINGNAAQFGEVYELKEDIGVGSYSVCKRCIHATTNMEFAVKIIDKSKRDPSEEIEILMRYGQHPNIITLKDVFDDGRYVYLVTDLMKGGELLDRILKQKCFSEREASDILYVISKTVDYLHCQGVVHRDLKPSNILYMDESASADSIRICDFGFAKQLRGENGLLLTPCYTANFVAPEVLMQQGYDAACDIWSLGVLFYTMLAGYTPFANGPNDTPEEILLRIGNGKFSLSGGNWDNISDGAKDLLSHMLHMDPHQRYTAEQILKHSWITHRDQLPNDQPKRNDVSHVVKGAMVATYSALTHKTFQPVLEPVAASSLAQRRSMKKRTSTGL

CAMK1D (human), sequence (Q8IU85 whole entry, looked up): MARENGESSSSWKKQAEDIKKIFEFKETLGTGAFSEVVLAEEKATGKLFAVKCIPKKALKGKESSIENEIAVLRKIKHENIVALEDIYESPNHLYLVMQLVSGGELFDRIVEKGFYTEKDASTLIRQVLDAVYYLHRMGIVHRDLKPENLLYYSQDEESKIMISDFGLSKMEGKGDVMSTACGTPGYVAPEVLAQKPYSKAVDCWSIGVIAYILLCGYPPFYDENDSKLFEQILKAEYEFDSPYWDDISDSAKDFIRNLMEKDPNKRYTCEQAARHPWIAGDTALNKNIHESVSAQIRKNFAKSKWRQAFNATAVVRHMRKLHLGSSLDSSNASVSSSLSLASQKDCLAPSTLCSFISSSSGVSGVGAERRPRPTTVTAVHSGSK
SBK1 (human), sequence (Q52WX2 whole entry, looked up): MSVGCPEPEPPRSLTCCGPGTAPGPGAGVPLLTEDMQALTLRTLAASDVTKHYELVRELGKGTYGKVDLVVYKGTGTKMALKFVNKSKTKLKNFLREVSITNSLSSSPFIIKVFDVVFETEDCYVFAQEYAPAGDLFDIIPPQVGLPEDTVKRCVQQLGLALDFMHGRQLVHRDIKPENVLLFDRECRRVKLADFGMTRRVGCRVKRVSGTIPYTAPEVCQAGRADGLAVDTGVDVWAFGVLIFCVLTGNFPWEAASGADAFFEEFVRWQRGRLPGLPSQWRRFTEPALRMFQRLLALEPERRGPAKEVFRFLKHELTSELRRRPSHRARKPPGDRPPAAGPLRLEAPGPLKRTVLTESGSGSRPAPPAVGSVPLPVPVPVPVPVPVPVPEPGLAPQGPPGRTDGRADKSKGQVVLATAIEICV
CRK2 (P.falciparum), sequence (P61075 whole entry, looked up): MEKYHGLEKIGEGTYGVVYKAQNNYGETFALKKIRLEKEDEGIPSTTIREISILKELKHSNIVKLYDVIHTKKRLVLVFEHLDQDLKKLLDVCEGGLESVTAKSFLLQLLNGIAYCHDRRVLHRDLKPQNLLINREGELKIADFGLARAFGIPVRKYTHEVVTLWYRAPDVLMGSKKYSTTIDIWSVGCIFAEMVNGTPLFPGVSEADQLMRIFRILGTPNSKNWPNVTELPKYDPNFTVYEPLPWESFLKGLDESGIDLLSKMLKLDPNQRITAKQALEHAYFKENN
CDK13 (human), sequence (Q14004 whole entry, looked up): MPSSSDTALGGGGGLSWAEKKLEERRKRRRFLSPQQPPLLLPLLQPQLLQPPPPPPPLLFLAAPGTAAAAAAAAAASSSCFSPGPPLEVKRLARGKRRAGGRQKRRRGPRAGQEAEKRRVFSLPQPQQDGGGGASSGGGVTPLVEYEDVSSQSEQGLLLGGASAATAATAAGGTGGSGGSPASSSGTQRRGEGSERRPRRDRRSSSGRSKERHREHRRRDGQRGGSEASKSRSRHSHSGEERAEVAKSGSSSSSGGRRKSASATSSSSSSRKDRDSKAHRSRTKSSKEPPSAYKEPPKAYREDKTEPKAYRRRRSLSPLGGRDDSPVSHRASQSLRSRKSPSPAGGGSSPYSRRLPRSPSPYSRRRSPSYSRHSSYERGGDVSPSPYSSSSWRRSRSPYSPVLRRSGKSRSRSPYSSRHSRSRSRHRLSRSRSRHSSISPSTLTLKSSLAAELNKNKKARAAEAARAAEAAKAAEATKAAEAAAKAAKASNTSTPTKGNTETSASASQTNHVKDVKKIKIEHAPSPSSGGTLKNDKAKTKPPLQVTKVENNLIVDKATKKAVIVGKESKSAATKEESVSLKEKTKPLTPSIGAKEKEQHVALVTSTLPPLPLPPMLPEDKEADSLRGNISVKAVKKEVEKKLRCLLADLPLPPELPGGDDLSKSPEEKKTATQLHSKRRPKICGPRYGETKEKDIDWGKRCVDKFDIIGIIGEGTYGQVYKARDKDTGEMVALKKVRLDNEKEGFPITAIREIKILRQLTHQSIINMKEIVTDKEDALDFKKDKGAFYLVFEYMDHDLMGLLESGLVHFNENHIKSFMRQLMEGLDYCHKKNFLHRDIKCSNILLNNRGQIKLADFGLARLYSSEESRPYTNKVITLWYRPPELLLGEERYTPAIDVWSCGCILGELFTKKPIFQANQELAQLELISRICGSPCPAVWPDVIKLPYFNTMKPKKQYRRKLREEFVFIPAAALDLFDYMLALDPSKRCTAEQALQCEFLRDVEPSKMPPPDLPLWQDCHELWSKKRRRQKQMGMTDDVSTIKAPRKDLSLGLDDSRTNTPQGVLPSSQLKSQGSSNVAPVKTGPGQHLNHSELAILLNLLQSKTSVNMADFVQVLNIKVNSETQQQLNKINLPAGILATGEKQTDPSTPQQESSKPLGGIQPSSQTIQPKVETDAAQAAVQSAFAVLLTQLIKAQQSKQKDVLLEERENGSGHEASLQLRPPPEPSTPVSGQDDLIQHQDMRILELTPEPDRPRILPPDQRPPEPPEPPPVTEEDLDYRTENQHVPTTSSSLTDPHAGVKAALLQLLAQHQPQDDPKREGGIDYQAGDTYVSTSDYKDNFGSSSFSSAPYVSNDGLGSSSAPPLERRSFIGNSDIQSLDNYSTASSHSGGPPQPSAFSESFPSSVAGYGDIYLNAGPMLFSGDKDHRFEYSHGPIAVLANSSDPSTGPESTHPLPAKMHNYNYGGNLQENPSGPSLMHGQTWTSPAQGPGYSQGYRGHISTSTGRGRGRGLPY
TGFBR1 (human), sequence (P36897 whole entry, looked up): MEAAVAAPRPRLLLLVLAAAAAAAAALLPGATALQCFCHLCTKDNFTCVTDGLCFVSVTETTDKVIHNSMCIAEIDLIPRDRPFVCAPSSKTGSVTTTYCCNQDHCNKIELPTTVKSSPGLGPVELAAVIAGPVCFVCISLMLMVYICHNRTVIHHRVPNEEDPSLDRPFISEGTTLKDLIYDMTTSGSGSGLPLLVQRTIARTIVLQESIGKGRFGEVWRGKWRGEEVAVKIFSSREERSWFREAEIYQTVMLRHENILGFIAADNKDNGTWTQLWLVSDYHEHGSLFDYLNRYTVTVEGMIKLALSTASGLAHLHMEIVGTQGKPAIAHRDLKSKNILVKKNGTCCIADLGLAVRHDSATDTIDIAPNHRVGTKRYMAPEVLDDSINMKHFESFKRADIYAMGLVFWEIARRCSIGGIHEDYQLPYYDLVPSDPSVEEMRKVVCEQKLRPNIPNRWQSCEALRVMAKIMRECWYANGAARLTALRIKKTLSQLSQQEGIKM
NTRK1 (human), sequence (P04629 whole entry, looked up): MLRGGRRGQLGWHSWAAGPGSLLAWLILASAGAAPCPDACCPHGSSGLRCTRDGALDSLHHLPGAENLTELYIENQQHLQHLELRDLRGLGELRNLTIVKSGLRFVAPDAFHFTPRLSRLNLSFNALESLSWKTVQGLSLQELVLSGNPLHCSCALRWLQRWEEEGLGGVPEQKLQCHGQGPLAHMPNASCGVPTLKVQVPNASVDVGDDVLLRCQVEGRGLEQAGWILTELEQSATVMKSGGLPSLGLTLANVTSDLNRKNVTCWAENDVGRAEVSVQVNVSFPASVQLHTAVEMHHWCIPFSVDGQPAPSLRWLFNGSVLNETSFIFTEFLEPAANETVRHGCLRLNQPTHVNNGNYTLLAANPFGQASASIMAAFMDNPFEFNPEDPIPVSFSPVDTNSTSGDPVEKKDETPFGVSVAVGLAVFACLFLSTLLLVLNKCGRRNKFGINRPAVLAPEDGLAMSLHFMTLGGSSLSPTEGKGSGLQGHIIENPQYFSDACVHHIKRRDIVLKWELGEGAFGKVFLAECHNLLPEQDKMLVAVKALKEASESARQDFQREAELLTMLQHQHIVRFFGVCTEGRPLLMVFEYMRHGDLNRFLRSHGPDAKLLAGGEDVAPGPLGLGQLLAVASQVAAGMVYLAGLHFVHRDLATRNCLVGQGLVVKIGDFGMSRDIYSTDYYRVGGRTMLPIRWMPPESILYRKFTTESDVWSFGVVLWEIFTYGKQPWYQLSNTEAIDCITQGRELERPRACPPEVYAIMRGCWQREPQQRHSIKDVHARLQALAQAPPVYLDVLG
TSSK1B (human), sequence (Q9BXA7 whole entry, looked up): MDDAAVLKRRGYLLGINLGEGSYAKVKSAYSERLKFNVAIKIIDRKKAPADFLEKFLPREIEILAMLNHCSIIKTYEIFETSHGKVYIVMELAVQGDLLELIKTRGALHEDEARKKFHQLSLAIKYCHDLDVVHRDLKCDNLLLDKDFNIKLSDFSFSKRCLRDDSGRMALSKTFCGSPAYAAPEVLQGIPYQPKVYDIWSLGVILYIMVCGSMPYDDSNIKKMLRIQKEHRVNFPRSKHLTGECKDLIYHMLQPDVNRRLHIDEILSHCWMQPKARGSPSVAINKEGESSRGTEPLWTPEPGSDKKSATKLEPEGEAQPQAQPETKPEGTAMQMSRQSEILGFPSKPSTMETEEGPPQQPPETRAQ

CCN1CCN(Cc2ccc(NC(=O)c3ccc(C)c(/C=C/c4cnc5[nH]ccc5c4OC)c3)cc2C(F)(F)F)CC1 showed a kinase still bound, per cent of control [1] of 100%, a kinase still bound, per cent of control [2] of 100% and a kinase still bound, per cent of control [3] of 100%. The kinase still bound, per cent of control [4] was 100%, the kinase still bound, per cent of control [5] was 0% and the kinase still bound, per cent of control [6] was 7.7%. The kinase still bound, per cent of control [7] was 75%, the kinase still bound, per cent of control [8] was 5.2% and the kinase still bound, per cent of control [9] was 0.1%. The kinase still bound, per cent of control [10] was 100%, the kinase still bound, per cent of control [11] was 100% and the kinase still bound, per cent of control [12] was 82%. It also gave a kinase still bound, per cent of control [13] of 12%, a kinase still bound, per cent of control [14] of 14% and a kinase still bound, per cent of control [15] of 100%. For the same compound, the kinase still bound, per cent of control [16] was 1.4%, the kinase still bound, per cent of control [17] was 100% and the kinase still bound, per cent of control [18] was 100%. It also gave a kinase still bound, per cent of control [19] of 20%, a kinase still bound, per cent of control [20] of 16% and a kinase still bound, per cent of control [21] of 57%. It also gave a kinase still bound, per cent of control [22] of 2.6%, a kinase still bound, per cent of control [23] of 2.5% and a kinase still bound, per cent of control [24] of 71%. It also gave a kinase still bound, per cent of control [25] of 92%, a kinase still bound, per cent of control [26] of 72% and a kinase still bound, per cent of control [27] of 100%. It also gave a kinase still bound, per cent of control [28] of 12%, a kinase still bound, per cent of control [29] of 86% and a kinase still bound, per cent of control [30] of 23%. It also gave a kinase still bound, per cent of control [31] of 16%, a kinase still bound, per cent of control [32] of 21% and a kinase still bound, per cent of control [33] of 93%. It also gave a kinase still bound, per cent of control [34] of 57%, a kinase still bound, per cent of control [35] of 8.2% and a kinase still bound, per cent of control [36] of 0.1%. The kinase still bound, per cent of control [37] was 2.2%, the kinase still bound, per cent of control [38] was 0.15% and the kinase still bound, per cent of control [39] was 100%. It also gave a kinase still bound, per cent of control [40] of 42%.
